Measured values taken from US20220145396A1, “METHOD OF IDENTIFYING PATIENTS WITH BORTEZOMIB RESISTANT MULTIPLE MYELOMA AND OTHER BLOOD DISEASES” (Max-Planck-Gesellschaft zur Förderung der Wissenschaften …, priority 2019, published 2022).
Entries after “also recorded” stand apart in the source; their conditions may differ.

How the values were obtained:
[1] = test system: bortezomib resistant PSMB5 mutant cell lines; experiment: XTT cell viability assay of bortezomib resistant PSMB5 mutant clones (AN3-12 mouse haploid embryonic stem cells) treated with proteasome inhibitors; assay type: cell-based
Protocol: AN3-12 mouse haploid embryonic stem cells were cultured as previously described (Elling et al., 2011). In brief, the cells were grown in DMEM high glucose (Sigma-Aldrich, St. Louis, Mo.) supplemented with 15% fetal bovine serum, penicillin/streptomycin, glutamine, non-essential amino acids, sodium pyruvate (all Thermo Fisher Scientific, Waltham, Mass.), β-mercaptoethanol, and Leukemia-Inhibitor Factor (LIF) (both Merck Millipore, Darmstadt, Germany) on non-coated tissue culture plates.
Chemical mutagenesis was performed as previously described (Horn et al., 2011). In brief, AN3-12 cells were transferred to 15 ml tubes, incubated with 0.1 mg/ml ENU for two hours at room temperature, washed five times with LIF-free medium, and plated on culture dishes. The cells were selected with 25 nM Bortezomib (Selleckchem, Houston, Tex.) for three weeks, starting 24 h after mutagenesis. Resistant clones were transferred to 24-well plates and the Psmb5 locus was analyzed. DNA was extracted (DNA extraction solution, Epicentre, Biotechnologies, Madison, Wis.) and exon 2 or exon 3 of the Psmb5 genewere specifically amplified by PCR using the primers msPSMB5exon2_fwd ([…]), msPSMB5exon2_rev ([…]), msPSMB5exon3_fwd ([…]), and msPSMB5exon3_rev ([…]). The used PSMB5 transcript is PSMB5-202, transcript identification ID ENST00000361611.11, coding sequence: CCDS9584, as available on Ensemble Biomart database. Sanger sequencing was performed at Eurofins Genomics GmbH (Ebersberg, Germany).
(§1) Cell viability was analyzed using the XTT cell proliferation Kit II (Roche Diagnostics, Basel, Switzerland) according to the manufacturer's instructions. Drug treatment was started 24 h after cell seeding. The absorbance was measured after 72 h of treatment and normalized to the respective untreated control cells.

[2] = test system: KMS-18 T21A mutant cell line; experiment: XTT viability assay of KMS-18 multiple myeloma cell line with spontaneous PSMB5 T21A substitution; assay type: cell-based, human; conditions: KMS-18 T21A mutant cells, heterozygous
Protocol: as §1
KMS-18 and KMS-27 cells, having a wild type PSMB5 locus, were subjected to a 4-week selection on bortezomib without the use of mutagens.
Resistance of these two mutant cell lines to the different proteasome inhibitors was investigated using the XTT viability assay.

[3] = T21 substitutions, 15 nM carfilzomib or 75 nM oprozomib

Row | Structure (SMILES) | resistance of mutant cell lines compared to the wildtype control (viability assay) ([1]; 10 nM bortezomib, 72 h, identified Psmb5 mutant clones vs WT) | response in cell viability assay ([1]; T21A substitution) | response in XTT viability assay [2] | resistance in cell viability assay ([1]; 50 nM ixazomib, all bortezomib resistant PSMB5 mutant cell lines) | resistance in cell viability assay ([1]; 75 nM oprozomib, the different mutants) | response in cell viability assay [1, 3] | resistance in cell viability assay ([1]; 15 nM carfilzomib, the different mutants) | response in cell viability assay (clustering, FIG. 12) ([1]; substitutions in positions C63, S130, or Y169)
1 | CC(C)C[C@H](NC(=O)[C@H](Cc1ccccc1)NC(=O)c1cnccn1)B(O)O [bortezomib, [(1R)-3-Methyl-1-[[(2S)-1-oxo-3-phenyl-2-[(pyrazinylcarbonyl)amino]propyl]amino]butyl]boronic acid] | up to 2 fold | resistance | resistance | – | – | – | – | –
2 | CC(C)C[C@H](NC(=O)CNC(=O)c1cc(Cl)ccc1Cl)B(O)O [ixazomib] | – | resistance | resistance | resistant | – | – | – | –
3 | COC[C@H](NC(=O)c1cnc(C)s1)C(=O)N[C@@H](COC)C(=O)N[C@@H](Cc1ccccc1)C(=O)[C@@]1(C)CO1 [oprozomib] | – | hypersensitive | sensitive | – | varying degrees of resistance; also recorded: highly variable | hypersensitivity | – | –
4 | CC(C)C[C@H](NC(=O)[C@H](CCc1ccccc1)NC(=O)CN1CCOCC1)C(=O)N[C@@H](Cc1ccccc1)C(=O)N[C@@H](CC(C)C)C(=O)[C@@]1(C)CO1 [carfilzomib] | – | hypersensitive | sensitive | – | – | hypersensitivity | varying degrees of resistance; also recorded: highly variable | partially maintained response
